# “And” between values parts separate entries of the source, which are not always exact repeats. Equal entries are not always repeated. Marks after values point to notes of the source that are not given here.
# Experiments:
# male CBA/CaLac mice = experiment: Chronic toxic hepatitis model (CCl4), liver histology; format: in vivo, mouse; details: Day 28; Treamid 10 mg/kg intragastrically Day 14-27
# Experimental: Chronic toxic hepatitis was induced in the male CBA/CaLac mice by intragastric administration of a 20% carbon tetrachloride (CCl4) solution in olive oil in a volume of 0.2 ml/mouse on Days 0, 3, 7, 10, 14, and 17 of the study. Treamid was administered at a dose of 10 mg/kg intragastrically once daily, every day from Day 14 to Day 27 of the study. On day 28, the animals were euthanized in a CO2 chamber and a liver biopsy sample was taken for histological analysis.
# For histological examination, the liver was fixed in a 10% neutral formalin solution and then poured into paraffin by the standard method. Deparaffined sections of a thickness of 5 μm were stained: 1) with hematoxylin and eosin according to the standard procedure for routine histological examination; and 2) with picrofuxin for the calculation of the area of connective tissue, using a graphic data processing software.
# male Wistar rats = experiment: Sperm motility in hypogonadotropic hypogonadism simulated with Synestrol; format: in vivo, rat; details: Synestrol 50 U/kg/day, Treamid 0.5 mg/kg or Tribestan 70 mg/kg intraperitoneally Day 31-45
# Experimental: Hypogonadotropic hypogonadism was simulated by the administration of Synestrol. Estrogens are able to inhibit the secretion of LH (Luteinizing hormone) and FSH (follicle stimulating hormone). An increase in the concentration of estrogens in a male body is accompanied by an increase in the content of sex-steroid-binding globulins, which leads to a decrease in the concentration of free testosterone and to the appearance of asthenospermia.
# Experiments were performed on 36 male Wistar rats (3 months of age). For 30 days after the beginning of the experiment, all male rats (except for the background group) were intramuscularly injected with Synestrol at a dose of 50 U/kg/day. Further, from Day 31 to Day 45 of the experiment, the animals of the experimental group, in addition to Synestrol, were intraperitoneally administered Treamid at dose of 0.5 mg/kg or reference drug Tribestan at a dose of 70 mg/kg. The effectiveness of Treamid was estimated by the number of motile sperm forms (percentage of motile sperm forms) isolated from the epididymis. The results of the studies were compared with those for the administration of Synestrol (control) and reference drug Tribestan.
# male rats = experiment: Benign prostatic hyperplasia (BPH) model induced with Sulpiride, prostate weight and morphometry; format: in vivo, rat
# Experimental: This is manifested in a decrease in the severity of the morphological changes typical in these diseases. CAP was simulated by suturing the ventral lobe of the gland with a silk thread, and BPH was simulated by the administration of Sulpiride. The reference drug was Prostamol Uno.
# Animals with BPH received Teramide intragastrically for 2 months at a dose of 0.5 mg/kg.
# Experiments were performed on 40 male Wistar rats (3 months of age). To simulate chronic abacterial prostatitis, the ventral lobe of the prostate was sutured with a silk thread (under anesthesia). The model of benign prostatic hyperplasia (BPH) was simulated in rats by inducing hyperprolactinaemia, for which male rats were intraperitoneally injected with Sulpiride at a dose of 40 mg/kg every day for 2 months (Eglonil, Sanofi Winthrop Industry, France).
# The ability of Treamid to normalize the structure of the prostate gland was studied in the presence of administration of Sulpiride. For this purpose, Treamid was administered intragastrically for 2 months at a dose of 0.5 mg/kg simultaneously with Sulpirid. The control animals received a solvent (2% starch mucus) in an equivalent volume. The animals of the comparison group were injected intragastrically with a solution of Prostamol Uno at a dose of 50 mg/kg. At the end of the administration course, the animals were weighed and euthanized in a CO2 chamber. Sulpiride is known to cause the development of BPH in the lateral lobe of the gland in rats [Van Coppenolle Fabien, Christian Slomianny, Francoise Carpentier Effects of hyperprolactinemia on rat prostate growth: evidence of androgeno—dependence.//Physiol. Endocrinol. Metab.—2001.—P. 120-129]. In this regard, this lobe was dissected. Its weight, weight coefficient, and volume were determined. Further, it was subjected to a morphological analysis. The lateral lobe of the prostate gland was fixed in 10% formalin and poured into paraffin, followed by preparation of sections of a thickness of 5 μm. Deparaffined sections of the gland were stained with hematoxylin and eosin. On the histological sections, the presence of proliferative centers and daughter acini were determined per standard section area. In addition, the area of the epithelial and stromal structures was measured on the standard area of a histological section. These parameters were determined by using a computer graphic analysis on the standard area of a histological section (micrographs of 10 serial visual fields performed by an AxioCam Erc5s camera mounted on an AxioLab A1 microscope (×10 lens, ×10 eyepiece), with an image transfer software of “AxioVision LE”, Carl Zeisis). The stromal-epithelial ratio was defined as a ratio of the area of stroma to the area of epithelium.
# The effectiveness of the test compound was estimated by the following criteria: lower intensity of morphological symptoms of benign prostatic hyperplasia:—a decrease in the number of proliferation centers and daughter acini, and a decrease in the area of the epithelium.
# male C57BL/6 mice = experiment: Bleomycin-induced pulmonary fibrosis model; format: in vivo, mouse; details: Day 21; 10 mg/kg
# Experimental: Toxic damage of the lung alveolar epithelium causing pulmonary fibrosis was simulated by intra-tracheal administration of the cytostatic bleomycin once in a dose of 80 μg/mouse in 30 μl of physiological saline. Anesthesia during the operation was achieved by using inhalation ether. The surgical field was disinfected with a 70% ethanol solution and hair on this field was removed. The skin, subcutaneous tissue and own fascia of the neck were dissected along the middle line of the neck. The muscles were moved apart on the ventral side of the trachea by the method of blunt separation of tissues. Injection of bleomycin was made on inhalation along the airflow by a Hamilton syringe. After suturing the wound, the surgical field was treated with an antiseptic. The administration of bleomycin was taken as Day 0 of the experiment.
# The effectiveness of Treamid and the reproduction of pulmonary fibrosis were estimated by the number and intensity of the synthesis of connective tissue in the lungs, as well as by the histoarchitectonics of the lungs.
# Thus, the staining of histological preparations of the lungs of C57BL/6 mice with picrofuxin according to Van Gieson and subsequent visualization of the connective tissue made it possible to register a significant proliferation of the connective tissue, mainly around the vessels and bronchioles (FIG. 5, Table 36). In addition, lung homogenates of the animals of the intact control and pathological control were investigated by enzyme immunoassay.
# [1] = Treamid 0.5 mg/kg 2 months, Prostamol Uno 50 mg/kg
structure (smiles),measurement,setting,value
O=C(CCCC(=O)NCCc1ncc[nH]1)NCCc1ncc[nH]1 [Treamid],content of connective tissue in the liver compared to the pathological control,male CBA/CaLac mice,markedly reduced
same,histological pattern of the liver,male CBA/CaLac mice,did not differ from that of the intact control
same,The number of motile sperm cells (%),male Wistar rats; group X ± m,69.06 ± 2.98#*⋄ %
same,The number of motile sperm cells (%),male Wistar rats; individual animals,67.04% and 56.84% and 78.65% and 59.09% and 72.63% and 66.67% and 66.99% and 85.55% and 68.08%
same,"Volume of the lateral lobe of the prostate gland, cm^3",male rats; [1],0.62 ± 0.14# cm^3
same,Weight coefficient of the lateral lobe of the prostate gland,male rats; [1],0.69 ± 0.12 mg/g
same,Weight of the lateral lobe of the prostate gland,male rats; [1],381.67 ± 70.30 mg
same,Relative area (%) of the acinar epithelium on the standard area of a section of the lateral lobe,male rats; group M ± m,13.89 ± 2.08 %
same,Relative area (%) of the stroma on the standard area of a section of the lateral lobe,male rats; group M ± m,45.66 ± 2.30 %
same,The number of daugter proliferative centers (abs.),male rats; group M ± m,1.60 ± 0.60 abs.
same,The number of structures (abs.) consisting of 2-3 glandules tightly adjacent to each other,male rats; group M ± m,1.60 ± 0.81 abs.
same,Relative area (%) of the acinar epithelium on the standard area of a section of the lateral lobe,male rats; individual animals,10.26% and 14.09% and 16.30% and 20.19% and 8.61%
same,Relative area (%) of the stroma on the standard area of a section of the lateral lobe,male rats; individual animals,48.61% and 45.59% and 44.14% and 38.12% and 51.82%
same,The number of daugter proliferative centers (abs.),male rats; individual animals,3 abs. (2×) and 1 abs. (2×) and 0 abs.
same,The number of structures (abs.) consisting of 2-3 glandules tightly adjacent to each other,male rats; individual animals,1 abs. and 3 abs. and 4 abs. and 0 abs. (2×)
same,Hydroxyproline (μg/ml) in the lungs,male C57BL/6 mice,27.97 ± 2.2 µg/mL
same,The content of connective tissue (%) in the lungs,male C57BL/6 mice,1.17 ± 0.20• %
same,Total collagen (mg/ml) in the lungs,male C57BL/6 mice,23.4 ± 1.7 mg/mL
same,Type I collagen (ng/ml) in the lungs,male C57BL/6 mice,201.6 ± 18 ng/mL

# Source: patent US10076511B2, “Bisamide derivative of dicarboxylic acid as an agent for stimulating tissue regeneration and recovery of diminished tissue function” (TREAMID GmbH, priority 2015, dated 2018)
